Entries after “also recorded” stand apart in the source; their conditions may differ.
Key:
[1] = test system: mast cell-deficient Kit^W-sh/W-sh mice; test: DSCG treatment of mast cell-deficient Kit W-sh/W-sh mice on Western diet; format: in vivo, mouse
Source text: (§1) Wild-type (C57BL/6), Il6^−/− (C57BL/6, N11), and Ifng^−/− (C57BL/6, N10) mice were purchased from the Jackson Laboratories (Bar Harbor, Me.). Congenic Tnf^−/− (C56BL/6, N10) and mast cell-deficient Kit^W-sh/W-sh (C57BL/6, N>10) mice were generated by back-crossing to the C57BL/6 background as described (Sun, et al. Nat. Med. 13:719-724 (2007); Wolters, et al., Clin Exp Allergy 35:82-88 (2005)). The standing committee of Harvard Medical School approved all animal research protocols, and all mice were housed in a pathogen-free facility. To induce obesity, we fed 6-week-old mice (females and males) a Western diet (Research Diet, New Brunswick, N.J.) for 12-20 weeks. Mouse body weight was monitored weekly. By the end of each course of Western diet consumption, we performed glucose tolerance and energy expenditure assays as reported previously (Yang, et al., Nat. Cell Biol. 9:970-977 (2007)). Mouse blood samples were collected for serum adipokine measurement. Subcutaneous, visceral, and brown fat and skeletal muscle were harvested individually for protein extraction and paraffin section preparation. Tissue protein extracts were used for ELISA, immunoblot analysis, and cysteinyl cathepsin active site labeling. […]

[2] = test system: obese and diabetic WT mice; test: Treatment of established diet-induced obesity and diabetes (four treatment groups); format: in vivo, mouse
Source text: To assess the direct participation of mast cells in obesity, we studied mast cell-deficient Kit^W-sh/W-sh mice in diet-induced obesity. While Kit^W-sh/W-sh mice lack mature mast cells due to an inversion mutation of the c-Kit promoter region (Duttlinger, et al., Proc. Nat'l Acad. Sci. USA 92:3754-3758 (1995)), numbers and activities of other leukocytes in blood are normal, permitting probing of mast cell functions in vivo. […] To extend our observations, we fed WT mice a Western diet for 12 weeks to produce obesity and diabetes, and grouped these obese and diabetic mice into four treatment groups: I, continued feeding with a Western diet; II, switched to a chow diet; III, continued feeding with a Western diet together with a daily i.p. injection of DSCG; IV, switched to a chow diet and treated with DSCG.

[3] = test system: CD117-positive mast cells and CD31-positive areas in WAT and muscle; test: Immunohistology of WAT and muscle (CD117 mast cells, CD31 microvessels); format: in vivo, mouse; details: DSCG-treated vs untreated mice, same dietary conditions
Experimental: Human and mouse WAT and muscle tissues were fixed with 10% formalin overnight and embedded in paraffin, from which 5 μm sections were prepared. Anti-human mast cell tryptase (mouse monoclonal, 1:100, Dako, TRAPPES CEDEX, France), anti-mouse mast cell CD117 (rat monoclonal, 1:10, eBiosciences, Inc., San Diego, Calif.), and anti-mouse CD31 (rat monoclonal, 1:400, Pharmingen, San Diego, Calif.) immunostained for mast cells and microvessels on WAT, muscle, and liver sections. Researchers blinded to the origin of tissue counted human tryptase-positive and CD117-positive mast cells, and data are presented as cell numbers per mm^2. CD31-positive areas in WAT and muscle were determined using Image-Pro Plus software as described, and data were presented as percentage of CD31-positive areas (Wang, et al., J. Biol. Chem. 281:6020-6029 (2006); Wild, Microvasc Res. 59:368-376 (2000)). Hematoxylin and eosin staining assisted histologic assessment of the GI tract.

[4] = test system: Western diet-fed wild-type (C57BL/6) mice; test: Energy expenditure assay; format: in vivo, mouse; details: DSCG-treated WT mice vs untreated WT mice
Source text: as §1

[5] = test system: Western diet-fed wild-type (C57BL/6) mice; test: Glucose tolerance assay in Western diet-fed mice; format: in vivo, mouse; details: WT mice treated with DSCG
Source text: as §1

[6] = test system: UCP1, fibronectin, Glut4, insulin receptor; test: Immunoblot analysis of tissue protein extracts; format: in vivo, mouse
Source text: Wild-type (C57BL/6), Il6^−/− (C57BL/6, N11), and Ifng^−/− (C57BL/6, N10) mice were purchased from the Jackson Laboratories (Bar Harbor, Me.). Congenic Tnf^−/− (C56BL/6, N10) and mast cell-deficient Kit^W-sh/W-sh (C57BL/6, N>10) mice were generated by back-crossing to the C57BL/6 background as described (Sun, et al. Nat. Med. 13:719-724 (2007); Wolters, et al., Clin Exp Allergy 35:82-88 (2005)). The standing committee of Harvard Medical School approved all animal research protocols, and all mice were housed in a pathogen-free facility. To induce obesity, we fed 6-week-old mice (females and males) a Western diet (Research Diet, New Brunswick, N.J.) for 12-20 weeks. Mouse body weight was monitored weekly. By the end of each course of Western diet consumption, we performed glucose tolerance and energy expenditure assays as reported previously (Yang, et al., Nat. Cell Biol. 9:970-977 (2007)). Mouse blood samples were collected for serum adipokine measurement. Subcutaneous, visceral, and brown fat and skeletal muscle were harvested individually for protein extraction and paraffin section preparation. Tissue protein extracts were used for ELISA, immunoblot analysis, and cysteinyl cathepsin active site labeling. For immunoblot analysis, 30 μg of proteins were separated on an 8% SDS-PAGE to detect 220 kDa fibronectin (mouse monoclonal, 1:100, NeoMarkers, Fremont, Calif.) and 200 kDa insulin receptor (mouse monoclonal, 1:100, Calbiochem, San Diego, Calif.) or a 12% SDS-PAGE to detect Glut4 (mouse monoclonal, 1:200, R&D Systems, Minneapolis, Minn.), UCP1 (rabbit polyclonal, 1:3000, Abcam, Cambridge, Mass.), actin (mouse monoclonal, 1:500, Abcam), and glyceraldehyde-3-phosphate dehydrogenase (GAPDH, rabbit polyclonal, 1:1000, Santa Cruz Biotechnolog, Santa Cruz, Calif.). For cathepsin active site labeling, 30 μg of proteins were incubated with 1 μl of 600 mM dithiothreitol and 1 μl of [^125I]-JPM in a pH5.5 buffer as previously described. After incubating the reaction mixture at 37° C. for 1 hour, labeled proteins were separated on a 12% SDS-PAGE. Gel was stained with Coomassie blue, destained, dried, and exposed to an x-ray film. The liver and GI tract were harvested for histologic analysis.

[7] = test system: Western diet-fed wild-type (C57BL/6) mice; test: Diet-induced obesity, Western diet with daily i.p. DSCG; format: in vivo, mouse
Source text: as §1

[8] = test system: liver, gastrointestinal tract, pancreas
Source text: Wild-type (C57BL/6), Il6^−/− (C57BL/6, N11), and Ifng^−/− (C57BL/6, N10) mice were purchased from the Jackson Laboratories (Bar Harbor, Me.). Congenic Tnf^−/− (C56BL/6, N10) and mast cell-deficient Kit^W-sh/W-sh (C57BL/6, N>10) mice were generated by back-crossing to the C57BL/6 background as described (Sun, et al. Nat. Med. 13:719-724 (2007); Wolters, et al., Clin Exp Allergy 35:82-88 (2005)). The standing committee of Harvard Medical School approved all animal research protocols, and all mice were housed in a pathogen-free facility. To induce obesity, we fed 6-week-old mice (females and males) a Western diet (Research Diet, New Brunswick, N.J.) for 12-20 weeks. Mouse body weight was monitored weekly. […]
Human and mouse WAT and muscle tissues were fixed with 10% formalin overnight and embedded in paraffin, from which 5 μm sections were prepared. […] Researchers blinded to the origin of tissue counted human tryptase-positive and CD117-positive mast cells, and data are presented as cell numbers per mm^2. CD31-positive areas in WAT and muscle were determined using Image-Pro Plus software as described, and data were presented as percentage of CD31-positive areas (Wang, et al., J. Biol. Chem. 281:6020-6029 (2006); Wild, Microvasc Res. 59:368-376 (2000)). […]

[9] = test system: IL6, TNF-α, IFN-γ, MCP-1, adiponectin, MMP-9, CatS, CatL, leptin in serum and/or WAT; test: ELISA of serum and WAT adipokines; format: in vivo, mouse
Source text: Mouse body weight was monitored weekly. […] Mouse blood samples were collected for serum adipokine measurement.
Frozen mouse WAT was pulverized and lysed in a RIPA buffer (Pierce, Rockford, Ill.) containing a protease inhibitor cocktail (Calbiochem, San Diego, Calif.). Both WAT and serum samples were subjected to ELISA analysis for IL6 (BD Biosciences), TNF-α (PeproTech, Rocky Hill, N.J.), IFN-γ (PeproTech), MCP-1 (PeproTech), adiponectin (R&D Systems), MMP-9 (R&D Systems), CatS (R&D Systems), and CatL (Bender MedSystems Inc, Burlingame, Calif.) according to manufacturers' instructions.

O=C(O)c1cc(=O)c2c(OCC(O)COc3cccc4oc(C(=O)O)cc(=O)c34)cccc2o1 [DSCG, disodium cromoglycate]
glucose tolerance in Kit^W-sh/W-sh mice [1]: did not further change
body weight (gain) of Kit^W-sh/W-sh mice ([1]; Western diet): did not further affect the body weight; also recorded: did not further change
body weight decrease ([2]; group III: obese mice, continued Western diet plus daily i.p. DSCG, eight weeks): 12%
glucose tolerance ([2]; group IV: chow diet plus DSCG, compared among four groups): highest glucose tolerance among the four groups
body weight at which mice stabilized ([2]; group IV: chow diet plus DSCG, eight weeks): 40˜41 grams
body weight decrease ([2]; group IV: obese mice switched to chow diet and treated with DSCG, eight weeks): 19%
mast cell numbers in WAT [3]: mast cell numbers similar to WAT from untreated mice
O2 consumption and CO2 production [4]: significantly more O2 consumption and CO2 production
resting metabolic rate [4]: increased resting metabolic rate
glucose tolerance [5]: significantly improved glucose tolerance
Glut4 in WAT and muscle ([6]; DSCG-treated mice): more
fibronectin in WAT and muscle ([6]; DSCG-treated mice): more
insulin receptor (IR) in WAT and muscle ([6]; DSCG-treated mice): more
brown fat UCP1 expression ([6]; brown fat, vs WT control mice): obviously higher brown fat UCP1 expression
body weight gain ([7]; male WT mice, Western diet 12 weeks, daily i.p. injection, vs untreated WT): attenuated body weight gain
total subcutaneous and visceral fat ([7]; male mice, Western diet, vs untreated WT controls): significantly less total subcutaneous and visceral fat
mast cells or lipid-loaded adipocytes in livers ([8]; Western diet-fed WT mice treated with DSCG): did not detect mast cells or lipid-loaded adipocytes
food/water intake and toxic effect ([8]; mouse, in vivo): neither reduced food/water intake nor any toxic effect of DSCG
serum leptin levels ([9]; male and female mice, Western diet, vs WT controls): significantly lower levels
CatS levels in serum (ELISA) ([9]; serum): reduced significantly
CatL level ([9]; serum and/or WAT, Western diet): did not change significantly
IFN-γ level ([9]; serum and/or WAT, Western diet): lower levels
IL6 level ([9]; serum and/or WAT, Western diet): lower levels
MCP-1 level ([9]; serum and/or WAT, Western diet): lower levels
TNF-α level ([9]; serum and/or WAT, Western diet): lower levels
adiponectin level ([9]; serum and/or WAT, Western diet): did not change significantly
cathepsin S (CatS) level ([9]; serum and/or WAT, Western diet): lower levels
matrix metalloprotease-9 (MMP-9) level ([9]; serum and/or WAT, Western diet): lower levels

— patent US8785383B2, “Mast cell stabilizers in the treatment of obesity” (The Brigham and Women's Hospital, Inc., priority 2007, dated 2014)
